The text below walks through data of PubChem BioAssay AID328 (DTP/NCI, 2004).

This test has as its system BDF1 mice, P388 leukemia ip, median survival T/C. The test is described as follows: NCI In Vivo Anticancer Drug Screen. Data for tumor model P388 Leukemia (intraperitoneal) in B6D2F1 (BDF1) mice. To be noted: endpoint: median survival time, higher = longer survival. Put shortly: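 T/C = treated-group survival ÷ vehicle-control survival; tumour transplanted into mice before dosing.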

Setting [1] is: dose: 50.0 mg/kg/injection, schedule: Q01DX009 (ip), vehicle: saline with Tween-80.
Where [2] appears, read: dose: 100.0 mg/kg/injection, schedule: Q01DX009 (ip), vehicle: saline with Tween-80.
[3] abbreviates: dose: 200.0 mg/kg/injection, schedule: Q01DX009 (ip), vehicle: saline with Tween-80.
Setting [4] is: dose: 400.0 mg/kg/injection, schedule: Q01DX009 (ip), vehicle: saline with Tween-80.
Where [5] appears, read: dose: 6.25 mg/kg/injection, schedule: Q01DX009 (ip), vehicle: saline with Tween-80.

“And” between values parts separate entries of the source, which are not always exact repeats. Equal entries are not always repeated. Toxic doses and inconclusive results are not listed.

For `CC(=O)OCC(=O)[C@@]1(O)CC[C@H]2[C@@H]3C[C@H](F)C4=CC(=O)CC[C@]4(C)[C@H]3C(=O)C[C@@]21C`, where the note is “dose: 100.0 mg/kg/injection, schedule: Q01DX009 (ip), vehicle: other”, the T/C is 100 % of control.

For `COC1CC(O)C(O)C(C)O1` (configuration not stated), the T/C reads like this: under setting [1], 97 % of control; (dose: 50.0 mg/kg/injection, schedule: Q01DX009 (ip), vehicle: saline) 100 % of control; under setting [2], 95 % of control; (dose: 100.0 mg/kg/injection, schedule: Q01DX009 (ip), vehicle: saline) 107 % of control; (dose: 100.0 mg/kg/injection, schedule: Q04DX003 (ip), vehicle: saline with Tween-80) 106 % of control; under setting [3], 100 % of control. Further, the T/C was 118 % of control (dose: 200.0 mg/kg/injection, schedule: Q01DX009 (ip), vehicle: saline); 101 % of control (dose: 200.0 mg/kg/injection, schedule: Q04DX003 (ip), vehicle: saline with Tween-80); 95 % of control under setting [4]; 99 % of control (dose: 400.0 mg/kg/injection, schedule: Q01DX009 (ip), vehicle: saline); 99 % of control (dose: 400.0 mg/kg/injection, schedule: Q04DX003 (ip), vehicle: saline with Tween-80).

On to `COC(=O)Nc1nc2ccc(C(=O)c3ccccc3)cc2[nH]1`, for which the T/C runs as follows: (dose: 10.0 mg/kg/injection, schedule: Q04DX003 (ip), vehicle: other) 106 % of control; (dose: 30.0 mg/kg/injection, schedule: Q04DX003 (ip), vehicle: saline with Tween-80) 173 % of control; (dose: 35.0 mg/kg/injection, schedule: Q04DX003 (ip), vehicle: saline with Tween-80) 178 % of control.

As for `CCCCCCCCCCCCCCCCOc1ccccc1CNc1cccc(S(=O)(=O)F)c1`, the T/C by setting is: under setting [2], 95 % of control; under setting [3], 95 % of control; under setting [4], 95 % of control.

With `N#C/C(C(=N)c1ccccc1)=C1\SS/C(=C(\C#N)C(=N)c2ccccc2)S1`, under “dose: 1.5 mg/kg/injection, schedule: Q01DX009 (ip), vehicle: saline with Tween-80”, the T/C is 101 % of control.

For `O=CC(=O)c1ccc(O)cc1`, the T/C reads like this: (dose: 50.0 mg/kg/injection, schedule: Q04DX003 (ip), vehicle: saline sonified) 109 % of control; (dose: 300.0 mg/kg/injection, schedule: Q04DX003 (ip), vehicle: saline with Tween-80) 86 % of control.

For `COc1ccc(C2=NC(c3ccccc3)NC(c3ccccc3)/C2=C/c2ccccc2)cc1` (configuration not stated), the T/C by setting is: under setting [5], 106 % of control; (dose: 12.5 mg/kg/injection, schedule: Q01DX009 (ip), vehicle: saline with Tween-80) 99 % of control; (dose: 25.0 mg/kg/injection, schedule: Q01DX009 (ip), vehicle: saline with Tween-80) 99 % of control; under setting [1], 91 % of control and 94 % of control; under setting [2], 95 % of control.

Take `COC(=O)C(CSCSCc1ccccc1)NC(=O)C(CSCc1ccccc1)NC(=O)CCNC(=O)OCc1ccccc1` (configuration not stated): the T/C was 101 % of control (dose: 1.56 mg/kg/injection, schedule: Q04DX003 (ip), vehicle: Klucel (hydroxypropylcellulose) (HPC)); 120 % of control (dose: 3.13 mg/kg/injection, schedule: Q04DX003 (ip), vehicle: Klucel (hydroxypropylcellulose) (HPC)); 101 % of control (dose: 12.5 mg/kg/injection, schedule: Q04DX003 (ip), vehicle: Klucel (hydroxypropylcellulose) (HPC)); 111 % of control (dose: 25.0 mg/kg/injection, schedule: Q04DX003 (ip), vehicle: Klucel (hydroxypropylcellulose) (HPC)).

Regarding `ClC1=C(Cl)C2(Cl)C3COCC3C1(Cl)C2(Cl)Cl` (configuration not stated), the T/C was 113 % of control (dose: 100.0 mg/kg/injection, schedule: Q01DX001 (ip), vehicle: Klucel (hydroxypropylcellulose) (HPC)); 104 % of control (dose: 100.0 mg/kg/injection, schedule: Q04DX003 (ip), vehicle: Klucel (hydroxypropylcellulose) (HPC)); 113 % of control (dose: 200.0 mg/kg/injection, schedule: Q01DX001 (ip), vehicle: Klucel (hydroxypropylcellulose) (HPC)); 100 % of control and 108 % of control (dose: 200.0 mg/kg/injection, schedule: Q04DX003 (ip), vehicle: Klucel (hydroxypropylcellulose) (HPC)); 104 % of control (dose: 400.0 mg/kg/injection, schedule: Q01DX001 (ip), vehicle: Klucel (hydroxypropylcellulose) (HPC)); 100 % of control (dose: 400.0 mg/kg/injection, schedule: Q04DX003 (ip), vehicle: Klucel (hydroxypropylcellulose) (HPC)).

Consider `CC(C)CCc1cc(O)c(CCC(C)C)cc1O`, for which the T/C reads like this: (dose: 0.78 mg/kg/injection, schedule: Q01DX009 (ip), vehicle: saline with Tween-80) 101 % of control; (dose: 1.56 mg/kg/injection, schedule: Q01DX009 (ip), vehicle: saline with Tween-80) 102 % of control; (dose: 3.12 mg/kg/injection, schedule: Q01DX009 (ip), vehicle: saline with Tween-80) 102 % of control; under setting [5], 104 % of control.

For the compound `O=C(O)CCC1(c2ccccc2)CCCC1`, the T/C runs as follows: (dose: 25.0 mg/kg/injection, schedule: Q01DX009 (ip), vehicle: water) 91 % of control; (dose: 50.0 mg/kg/injection, schedule: Q01DX009 (ip), vehicle: water) 88 % of control; (dose: 100.0 mg/kg/injection, schedule: Q01DX009 (ip), vehicle: water) 103 % of control; (dose: 200.0 mg/kg/injection, schedule: Q01DX009 (ip), vehicle: water) 97 % of control; (dose: 300.0 mg/kg/injection, schedule: Q01DX009 (ip), vehicle: water) 106 % of control.

In the case of `C=C(C)c1ccc(C)c(C)c1`, the T/C runs as follows: under setting [2], 106 % of control; under setting [4], 122 % of control.
